Assay results: US8546608B2, “Proteasome inhibitors and methods of using the same” (Cephalon, Inc., priority 2003, dated 2013)

Key:
[1] = target: T1, 20S Human Erythrocyte Proteasome (HEP) (Homo sapiens, UniProt P20618+P28074); assay: Chymotrypsin-like activity of 20S Human Erythrocyte Proteasome (HEP), IC50 determination; type: biochemical; conditions: assay of Example C, inhibition of HEP
T1 construct: 20S Human Erythrocyte Proteasome (HEP), purchased from Immatics Biotechnologies Inc; purchased Immatics Biotechnologies Inc., Tübingen, Germany; host or cells: human erythrocytes (natural source)
How it was run: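 20S proteasome at 0.2 μg/mL (about 0.6 nM catalytic sites) in 20 mM Tris with 0.04% SDS, preincubated 15 min at 37° C with inhibitor before Suc-LLVY-AMC (100 μM final). AMC fluorescence read in the linear range; triplicates, IC50 from concentration series.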

[2] = target: T2, proteasome in Molt-4 cells (human leukemia) (Homo sapiens, UniProt P20618+P28074); type: cell-based; conditions: assay of Example E, inhibition of MOLT4; read-out: MOLT4 (EC50)
T2 sequence (P28074 60-263): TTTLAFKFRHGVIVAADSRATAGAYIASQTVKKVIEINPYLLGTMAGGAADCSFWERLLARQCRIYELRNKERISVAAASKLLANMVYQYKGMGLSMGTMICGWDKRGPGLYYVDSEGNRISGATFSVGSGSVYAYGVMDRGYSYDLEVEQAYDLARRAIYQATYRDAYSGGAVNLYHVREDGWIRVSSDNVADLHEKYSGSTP
T2 sequence (P20618 29-241): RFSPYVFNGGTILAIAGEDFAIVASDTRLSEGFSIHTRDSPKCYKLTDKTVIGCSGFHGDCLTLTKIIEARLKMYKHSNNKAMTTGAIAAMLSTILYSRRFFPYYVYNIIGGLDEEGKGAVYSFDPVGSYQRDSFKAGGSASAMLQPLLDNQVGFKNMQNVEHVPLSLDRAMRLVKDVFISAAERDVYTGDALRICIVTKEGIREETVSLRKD
How it was run: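 Intact Molt-4 cells (6×10^6 cells/mL) in HEPES-buffered saline were preincubated with inhibitor 15 min at 37 °C, then given cell-permeable MeOSuc-FLF-AFC at 25 μM final.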

IC50 [1] [nM]	EC50 [2] [nM]	SMILES
< 100	< 200	CC(C)C[C@H](NC(=O)[C@@H](NC(=O)c1ccccc1)[C@@H](C)O)B1O[C@@H]2C[C@@H]3C[C@@H](C3(C)C)[C@]2(C)O1 [D.3.174, Benzamide,N-[(1S,2R)-1-[[[(1R)-1-[(3aS,4S,6S,7aR)-hexahydro-3a,5,5-trimethyl-4,6-methano-1,3,2-benzodioxaborol-2-yl]-3-methylbutyl]amino]carbonyl]-2-hydroxypropyl]]
< 100	200 to 2000	COCCOCCOCC(=O)N[C@H](C(=O)N[C@@H](CC(C)C)B1O[C@@H]2C[C@@H]3C[C@@H](C3(C)C)[C@]2(C)O1)[C@@H](C)O [D.3.175, 2-[2-(2-Methoxyethoxy)ethoxy]acetamide,N-[(1S,2R)-1-[[[(1R)-1-[(3aS,4S,6S,7aR)-hexahydro-3a,5,5-trimethyl-4,6-methano-1,3,2-benzodioxaborol-2-yl]-3-methylbutyl]amino]carbonyl]-2-hydroxypropyl]]
< 10	< 200	CC(C)C[C@H](NC(=O)[C@@H](NC(=O)CCCc1ccccc1)[C@@H](C)O)B1O[C@@H]2C[C@@H]3C[C@@H](C3(C)C)[C@]2(C)O1 [D.3.176, 4-Phenylbutanamide,N-[(1S,2R)-1-[[[(1R)-1-[(3aS,4S,6S,7aR)-hexahydro-3a,5,5-trimethyl-4,6-methano-l53.2-benzodioxaborol-2-yl]-3-methylbutyl]amino]carbonyl]-2-hydroxypropyl]]
< 10	< 200	Cc1ccc(OCC(=O)N[C@H](C(=O)N[C@@H](CC(C)C)B2O[C@@H]3C[C@@H]4C[C@@H](C4(C)C)[C@]3(C)O2)[C@@H](C)O)cc1 [D.3.177, (4-Methylphenoxy)acetamide,N-[(1S,2R)-1-[[[(1R)-1-[(3aS,4S,6S,7aR)-hexahydro-3a,5,5-trimethyl-4,6-methano-1,3,2-benzodioxaborol-2-yl]-3-methylbutyl]amino]carbonyl]-2-hydroxypropyl]]
< 100	< 200	CCCCCC(=O)N[C@H](C(=O)N[C@@H](CC(C)C)B1O[C@@H]2C[C@@H]3C[C@@H](C3(C)C)[C@]2(C)O1)[C@@H](C)O [D.3.178, Hexanamide,N-[(1S,2R)-1-[[[(1R)-1-[(3aS,4S,6S,7aR)-hexahydro-3a,5,5-trimethyl-4,6-methano-1,3,2-benzodioxaborol-2-yl]-3-methylbutyl]amino]carbonyl]-2-hydroxypropyl]]
< 10	< 200	CCCCc1ccc(C(=O)N[C@H](C(=O)N[C@@H](CC(C)C)B2O[C@@H]3C[C@@H]4C[C@@H](C4(C)C)[C@]3(C)O2)[C@@H](C)O)cc1 [D.3.179, 4-butylbenzamide, N-[(1S,2R)-1-[[[(1R)-1-[(3aS,4S,6S,7aR)-hexahydro-3a,5,5-trimethyl-4,6-methano-1,3,2-benzodioxaborol-2-yl]-3-methylbutyl]amino]-carbonyl]-2-hydroxypropyl]-]
< 10	< 200	CC(C)C[C@H](NC(=O)[C@@H](NC(=O)c1ccc2ccccc2c1)[C@@H](C)O)B1O[C@@H]2C[C@@H]3C[C@@H](C3(C)C)[C@]2(C)O1 [D.3.180, Naphthalene-2-carboxamide,N-[(1S,2R)-1-[[[(1R)-1-[(3aS,4S,6S,7aR)-hexahydro-3a,5,5-trimethyl-4,6-methano-1,3,2-benzodioxaborol-2-yl]-3-methylbutyl]amino]carbonyl]-2-hydroxypropyl]]
< 100	200 to 2000	Cc1ccc(S(=O)(=O)CC(=O)N[C@@H](CCCNC(=N)N[N+](=O)[O-])C(=O)N[C@@H](CC(C)C)B2O[C@@H]3C[C@@H]4C[C@@H](C4(C)C)[C@]3(C)O2)cc1 [D.3.182]
< 10	< 200	CC(C)C[C@H](NC(=O)[C@H](CCCNC(=N)N[N+](=O)[O-])NC(=O)CS(=O)(=O)c1ccccc1)B1O[C@@H]2C[C@@H]3C[C@@H](C3(C)C)[C@]2(C)O1 [D.3.185, 2-(Benzenesulfonyl)acetamide,N-[(1S)-1-[[[(1R)-1-[(3aS,4S,6S,7aR)-hexahydro-3a,5,5-trimethyl-4,6-methano-1,3,2-benzodioxaborol-2-yl]-3-methylbutyl]amino]carbonyl]-4-[[imino(nitroamino)methyl]amino]butyl]]
< 10	< 200	CC(C)C[C@H](NC(=O)[C@H](CCCNC(=N)N[N+](=O)[O-])NC(=O)CCCCCCCCC#N)B1O[C@@H]2C[C@@H]3C[C@@H](C3(C)C)[C@]2(C)O1 [D.3.186, 9-Cyanononamide, N-[(1S)-1-[[[(1R)-1-[(3aS,4S,6S,7aR)-hexahydro-3a,5,5-trimethyl-4,6-methano-1,3,2-benzodioxaborol-2-yl]-3-methylbutyl]amino]carbonyl]-4-[[imino(nitroamino)methyl]amino]butyl]]
< 10	< 200	CC(C)C[C@H](NC(=O)[C@H](CCCNC(=N)N[N+](=O)[O-])NC(=O)CCCCCCCCCCCN1C(=O)c2ccccc2C1=O)B1O[C@@H]2C[C@@H]3C[C@@H](C3(C)C)[C@]2(C)O1 [D.3.189, 12-(1,3-Dioxo-1,3-dihydro-isoindol-2-yl)-dodecanamide, N-[(1S)-1-[[[(1R)-1-[(3aS,4S,6S,7aR)-hexahydro-3a,5,5-trimethyl-4,6-methano-1,3,2-benzodioxaborol-2-yl]-3-methylbutyl]amino]carbonyl]-4-[[imino(nitroamino)methyl]amino]butyl]]
< 10	< 200	CC(C)C[C@H](NC(=O)[C@H](CCCNC(=N)N[N+](=O)[O-])NC(=O)CCc1ccc(C(C)C)cc1)B1O[C@@H]2C[C@@H]3C[C@@H](C3(C)C)[C@]2(C)O1 [D.3.190, 3-[4-(2-Propyl)phenyl]propanamide, N-[(1S)-1-[[[(1R)-1-[(3aS,4S,6S,7aR)-hexahydro-3a,5,5-trimethyl-4,6-methano-1,3,2-benzodioxaborol-2-yl]-3-methylbutyl]amino]carbonyl]-4-[[imino(nitroamino)methyl]amino]butyl]]
< 10	< 200	CCc1ccc(CCC(=O)N[C@@H](CCCNC(=N)N[N+](=O)[O-])C(=O)N[C@@H](CC(C)C)B2O[C@@H]3C[C@@H]4C[C@@H](C4(C)C)[C@]3(C)O2)cc1 [D.3.191, 3-[4-(Ethyl)phenyl]propanamide, N-[(1S)-1-[[[(1R)-1-[(3aS,4S,6S,7aR)-hexahydro-3a,5,5-trimethyl-4,6-methano-1,3,2-benzodioxaborol-2-yl]-3-methylbutyl]amino]carbonyl]-4-[[imino(nitroamino)methyl]amino]butyl]]
< 100	2000 to 10000	CC(C)C[C@H](NC(=O)[C@H](CCCNC(=N)N[N+](=O)[O-])NC(=O)CCCCCO)B1O[C@@H]2C[C@@H]3C[C@@H](C3(C)C)[C@]2(C)O1 [D.3.192, 6-hydroxyhexanamide, N-[(1S)-1-[[[(1R)-1-[(3aS,4S,6S,7aR)-hexahydro-3a,5,5-trimethyl-4,6-methano-1,3,2-benzodioxaborol-2-yl]-3-methylbutyl]amino]carbonyl]-4-[[imino(nitroamino)methyl]amino]butyl]]
